Measured values reported in the supplement of paper PMC10307832.

What was measured:
Dabrafenib + Dasatinib = compound: CC(C)(C)c1nc(-c2cccc(NS(=O)(=O)c3c(F)cccc3F)c2F)c(-c2ccnc(N)n2)s1 [Dabrafenib] + Cc1nc(Nc2ncc(C(=O)Nc3c(C)cccc3Cl)s2)cc(N2CCN(CCO)CC2)n1 [Dasatinib] (partner 0.075 µM); experiment: relative viability (nuclei count vs DMSO), 5 days (fraction); higher = more cells survive
How it was run: (§1)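 Relative viability was taken as the ratio of nuclei in treated wells to nuclei in vehicle wells. Lung cancer cell lines in 1536-well plates received compounds by pin tool one day after seeding, either one drug alone or a fixed anchor-drug dose plus five library-drug doses (not always all listed) in √10 steps. Nuclei were counted on 4× images after 5 days of treatment, and values are medians of duplicate plates.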

Dabrafenib + Luminespib = compound: CC(C)(C)c1nc(-c2cccc(NS(=O)(=O)c3c(F)cccc3F)c2F)c(-c2ccnc(N)n2)s1 [Dabrafenib] + CCNC(=O)c1noc(-c2cc(C(C)C)c(O)cc2O)c1-c1ccc(CN2CCOCC2)cc1 [Luminespib] (partner 0.01 µM); experiment: as above
How it was run: as §1

LC-2-ad
relative viability (Dabrafenib + Dasatinib; first compound 0.009487 µM): 0.802
relative viability (Dabrafenib + Dasatinib; first compound 0.03 µM): 0.518
relative viability (Dabrafenib + Dasatinib; first compound 0.09487 µM): 0.512
relative viability (Dabrafenib + Dasatinib; first compound 0.3 µM): 0.677
relative viability (Dabrafenib + Luminespib; first compound 0.009487 µM): 1.16
relative viability (Dabrafenib + Luminespib; first compound 0.03 µM): 1.27
relative viability (Dabrafenib + Luminespib; first compound 0.09487 µM): 1.04
relative viability (Dabrafenib + Luminespib; first compound 0.3 µM): 0.947

LCLC-97TM1
relative viability (Dabrafenib + Dasatinib; first compound 0.003 µM): 0.574
relative viability (Dabrafenib + Dasatinib; first compound 0.009487 µM): 0.847
relative viability (Dabrafenib + Dasatinib; first compound 0.03 µM): 0.843
relative viability (Dabrafenib + Dasatinib; first compound 0.09487 µM): 0.36
relative viability (Dabrafenib + Dasatinib; first compound 0.3 µM): 0.534
relative viability (Dabrafenib + Luminespib; first compound 0.003 µM): 0.764
relative viability (Dabrafenib + Luminespib; first compound 0.009487 µM): 0.745
relative viability (Dabrafenib + Luminespib; first compound 0.03 µM): 0.584
relative viability (Dabrafenib + Luminespib; first compound 0.09487 µM): 0.756
relative viability (Dabrafenib + Luminespib; first compound 0.3 µM): 0.775

LCLC-103H
relative viability (Dabrafenib + Dasatinib; first compound 0.003 µM): 0.495
relative viability (Dabrafenib + Dasatinib; first compound 0.009487 µM): 0.526
relative viability (Dabrafenib + Dasatinib; first compound 0.03 µM): 0.513
relative viability (Dabrafenib + Dasatinib; first compound 0.09487 µM): 0.447
relative viability (Dabrafenib + Dasatinib; first compound 0.3 µM): 0.379
relative viability (Dabrafenib + Luminespib; first compound 0.003 µM): 0.971
relative viability (Dabrafenib + Luminespib; first compound 0.009487 µM): 1.01
relative viability (Dabrafenib + Luminespib; first compound 0.03 µM): 0.923
relative viability (Dabrafenib + Luminespib; first compound 0.09487 µM): 0.897
relative viability (Dabrafenib + Luminespib; first compound 0.3 µM): 1.01

LK-2
relative viability (Dabrafenib + Dasatinib; first compound 0.003 µM): 0.208
relative viability (Dabrafenib + Dasatinib; first compound 0.009487 µM): 0.274
relative viability (Dabrafenib + Dasatinib; first compound 0.09487 µM): 0.285
relative viability (Dabrafenib + Dasatinib; first compound 0.3 µM): 0.276
relative viability (Dabrafenib + Luminespib; first compound 0.003 µM): 0.185
relative viability (Dabrafenib + Luminespib; first compound 0.009487 µM): 0.187
relative viability (Dabrafenib + Luminespib; first compound 0.09487 µM): 0.153
relative viability (Dabrafenib + Luminespib; first compound 0.3 µM): 0.157

LOU-NH91
relative viability (Dabrafenib + Dasatinib; first compound 0.003 µM): 0.41
relative viability (Dabrafenib + Dasatinib; first compound 0.009487 µM): 0.573
relative viability (Dabrafenib + Dasatinib; first compound 0.03 µM): 0.582
relative viability (Dabrafenib + Dasatinib; first compound 0.09487 µM): 0.49
relative viability (Dabrafenib + Dasatinib; first compound 0.3 µM): 0.568
relative viability (Dabrafenib + Luminespib; first compound 0.003 µM): 0.262
relative viability (Dabrafenib + Luminespib; first compound 0.009487 µM): 0.36
relative viability (Dabrafenib + Luminespib; first compound 0.03 µM): 0.28
relative viability (Dabrafenib + Luminespib; first compound 0.09487 µM): 0.343
relative viability (Dabrafenib + Luminespib; first compound 0.3 µM): 0.294

LU99A
relative viability (Dabrafenib + Dasatinib; first compound 0.003 µM): 0.662
relative viability (Dabrafenib + Dasatinib; first compound 0.009487 µM): 0.569
relative viability (Dabrafenib + Dasatinib; first compound 0.03 µM): 0.423
relative viability (Dabrafenib + Dasatinib; first compound 0.09487 µM): 0.464
relative viability (Dabrafenib + Dasatinib; first compound 0.3 µM): 0.41
relative viability (Dabrafenib + Luminespib; first compound 0.003 µM): 0.203
relative viability (Dabrafenib + Luminespib; first compound 0.009487 µM): 0.212
relative viability (Dabrafenib + Luminespib; first compound 0.03 µM): 0.225
relative viability (Dabrafenib + Luminespib; first compound 0.09487 µM): 0.3
relative viability (Dabrafenib + Luminespib; first compound 0.3 µM): 0.29

LXF-289
relative viability (Dabrafenib + Dasatinib; first compound 0.003 µM): 0.175
relative viability (Dabrafenib + Dasatinib; first compound 0.009487 µM): 0.2
relative viability (Dabrafenib + Dasatinib; first compound 0.03 µM): 0.211
relative viability (Dabrafenib + Dasatinib; first compound 0.09487 µM): 0.195
relative viability (Dabrafenib + Dasatinib; first compound 0.3 µM): 0.192
relative viability (Dabrafenib + Luminespib; first compound 0.003 µM): 0.651
relative viability (Dabrafenib + Luminespib; first compound 0.009487 µM): 0.73
relative viability (Dabrafenib + Luminespib; first compound 0.03 µM): 0.675
relative viability (Dabrafenib + Luminespib; first compound 0.09487 µM): 0.589
relative viability (Dabrafenib + Luminespib; first compound 0.3 µM): 0.752

NCI-H23
relative viability (Dabrafenib + Dasatinib; first compound 0.009487 µM): 0.814
relative viability (Dabrafenib + Dasatinib; first compound 0.03 µM): 0.873
relative viability (Dabrafenib + Dasatinib; first compound 0.09487 µM): 0.625
relative viability (Dabrafenib + Dasatinib; first compound 0.3 µM): 0.666
relative viability (Dabrafenib + Luminespib; first compound 0.03 µM): 0.225
relative viability (Dabrafenib + Luminespib; first compound 0.09487 µM): 0.195
relative viability (Dabrafenib + Luminespib; first compound 0.3 µM): 0.226

NCI-H322M
relative viability (Dabrafenib + Dasatinib; first compound 0.009487 µM): 0.229
relative viability (Dabrafenib + Dasatinib; first compound 0.03 µM): 0.233
relative viability (Dabrafenib + Dasatinib; first compound 0.09487 µM): 0.279
relative viability (Dabrafenib + Dasatinib; first compound 0.3 µM): 0.236
relative viability (Dabrafenib + Luminespib; first compound 0.009487 µM): 1.05
relative viability (Dabrafenib + Luminespib; first compound 0.03 µM): 0.692
relative viability (Dabrafenib + Luminespib; first compound 0.09487 µM): 0.856
relative viability (Dabrafenib + Luminespib; first compound 0.3 µM): 0.803

NCI-H358
relative viability (Dabrafenib + Dasatinib; first compound 0.003 µM): 0.185
relative viability (Dabrafenib + Dasatinib; first compound 0.009487 µM): 0.197
relative viability (Dabrafenib + Dasatinib; first compound 0.03 µM): 0.233
relative viability (Dabrafenib + Dasatinib; first compound 0.09487 µM): 0.487
relative viability (Dabrafenib + Dasatinib; first compound 0.3 µM): 0.392
relative viability (Dabrafenib + Luminespib; first compound 0.009487 µM): 0.396
relative viability (Dabrafenib + Luminespib; first compound 0.03 µM): 0.35
relative viability (Dabrafenib + Luminespib; first compound 0.3 µM): 0.237

NCI-H441
relative viability (Dabrafenib + Dasatinib; first compound 0.009487 µM): 0.623
relative viability (Dabrafenib + Dasatinib; first compound 0.03 µM): 0.689
relative viability (Dabrafenib + Dasatinib; first compound 0.09487 µM): 0.55
relative viability (Dabrafenib + Dasatinib; first compound 0.3 µM): 0.456
relative viability (Dabrafenib + Luminespib; first compound 0.009487 µM): 0.317
relative viability (Dabrafenib + Luminespib; first compound 0.03 µM): 0.389
relative viability (Dabrafenib + Luminespib; first compound 0.09487 µM): 0.461
relative viability (Dabrafenib + Luminespib; first compound 0.3 µM): 0.347

NCI-H460
relative viability (Dabrafenib + Dasatinib; first compound 0.003 µM): 0.43
relative viability (Dabrafenib + Dasatinib; first compound 0.009487 µM): 0.529
relative viability (Dabrafenib + Dasatinib; first compound 0.03 µM): 0.615
relative viability (Dabrafenib + Dasatinib; first compound 0.09487 µM): 0.509
relative viability (Dabrafenib + Dasatinib; first compound 0.3 µM): 0.571
relative viability (Dabrafenib + Luminespib; first compound 0.003 µM): 0.0327
relative viability (Dabrafenib + Luminespib; first compound 0.009487 µM): 0.0312
relative viability (Dabrafenib + Luminespib; first compound 0.03 µM): 0.0334
relative viability (Dabrafenib + Luminespib; first compound 0.09487 µM): 0.042
relative viability (Dabrafenib + Luminespib; first compound 0.3 µM): 0.0437

NCI-H520
relative viability (Dabrafenib + Dasatinib; first compound 0.003 µM): 0.223
relative viability (Dabrafenib + Dasatinib; first compound 0.009487 µM): 0.24
relative viability (Dabrafenib + Dasatinib; first compound 0.03 µM): 0.199
relative viability (Dabrafenib + Dasatinib; first compound 0.09487 µM): 0.179
relative viability (Dabrafenib + Dasatinib; first compound 0.3 µM): 0.177
relative viability (Dabrafenib + Luminespib; first compound 0.003 µM): 0.228
relative viability (Dabrafenib + Luminespib; first compound 0.009487 µM): 0.213
relative viability (Dabrafenib + Luminespib; first compound 0.03 µM): 0.21
relative viability (Dabrafenib + Luminespib; first compound 0.09487 µM): 0.262
relative viability (Dabrafenib + Luminespib; first compound 0.3 µM): 0.224

NCI-H522
relative viability (Dabrafenib + Dasatinib; first compound 0.009487 µM): 0.862
relative viability (Dabrafenib + Dasatinib; first compound 0.03 µM): 0.671
relative viability (Dabrafenib + Dasatinib; first compound 0.09487 µM): 0.83
relative viability (Dabrafenib + Dasatinib; first compound 0.3 µM): 0.899
relative viability (Dabrafenib + Luminespib; first compound 0.009487 µM): 1.05
relative viability (Dabrafenib + Luminespib; first compound 0.03 µM): 1.11
relative viability (Dabrafenib + Luminespib; first compound 0.3 µM): 1.3

NCI-H596
relative viability (Dabrafenib + Dasatinib; first compound 0.009487 µM): 0.624
relative viability (Dabrafenib + Dasatinib; first compound 0.03 µM): 0.742
relative viability (Dabrafenib + Dasatinib; first compound 0.09487 µM): 0.544
relative viability (Dabrafenib + Dasatinib; first compound 0.3 µM): 0.646
relative viability (Dabrafenib + Luminespib; first compound 0.009487 µM): 1.03
relative viability (Dabrafenib + Luminespib; first compound 0.03 µM): 0.691
relative viability (Dabrafenib + Luminespib; first compound 0.09487 µM): 0.885
relative viability (Dabrafenib + Luminespib; first compound 0.3 µM): 0.927

NCI-H647
relative viability (Dabrafenib + Dasatinib; first compound 0.003 µM): 0.0445
relative viability (Dabrafenib + Dasatinib; first compound 0.009487 µM): 0.161
relative viability (Dabrafenib + Dasatinib; first compound 0.03 µM): 0.305
relative viability (Dabrafenib + Dasatinib; first compound 0.09487 µM): 0.188
relative viability (Dabrafenib + Dasatinib; first compound 0.3 µM): 0.159
relative viability (Dabrafenib + Luminespib; first compound 0.009487 µM): 0.282
relative viability (Dabrafenib + Luminespib; first compound 0.03 µM): 0.138
relative viability (Dabrafenib + Luminespib; first compound 0.09487 µM): 0.19
relative viability (Dabrafenib + Luminespib; first compound 0.3 µM): 0.217

NCI-H650
relative viability (Dabrafenib + Dasatinib; first compound 0.009487 µM): 0.332
relative viability (Dabrafenib + Dasatinib; first compound 0.03 µM): 0.402
relative viability (Dabrafenib + Dasatinib; first compound 0.09487 µM): 0.314
relative viability (Dabrafenib + Dasatinib; first compound 0.3 µM): 0.294
relative viability (Dabrafenib + Luminespib; first compound 0.009487 µM): 0.832
relative viability (Dabrafenib + Luminespib; first compound 0.03 µM): 0.688
relative viability (Dabrafenib + Luminespib; first compound 0.09487 µM): 0.56
relative viability (Dabrafenib + Luminespib; first compound 0.3 µM): 0.461

NCI-H661
relative viability (Dabrafenib + Dasatinib; first compound 0.003 µM): 0.591
relative viability (Dabrafenib + Dasatinib; first compound 0.009487 µM): 0.821
relative viability (Dabrafenib + Dasatinib; first compound 0.03 µM): 1.04
relative viability (Dabrafenib + Dasatinib; first compound 0.09487 µM): 0.921
relative viability (Dabrafenib + Dasatinib; first compound 0.3 µM): 1.06
relative viability (Dabrafenib + Luminespib; first compound 0.003 µM): 0.985
relative viability (Dabrafenib + Luminespib; first compound 0.009487 µM): 0.927
relative viability (Dabrafenib + Luminespib; first compound 0.03 µM): 0.912
relative viability (Dabrafenib + Luminespib; first compound 0.09487 µM): 0.758
relative viability (Dabrafenib + Luminespib; first compound 0.3 µM): 0.855

NCI-H727
relative viability (Dabrafenib + Dasatinib; first compound 0.009487 µM): 0.479
relative viability (Dabrafenib + Dasatinib; first compound 0.03 µM): 0.434
relative viability (Dabrafenib + Dasatinib; first compound 0.3 µM): 0.568
relative viability (Dabrafenib + Luminespib; first compound 0.009487 µM): 0.339
relative viability (Dabrafenib + Luminespib; first compound 0.03 µM): 0.324
relative viability (Dabrafenib + Luminespib; first compound 0.3 µM): 0.414
